The record followed here is paper PMC8399196, “Synthesis, Characterization, and Anticancer Activity of Benzothiazole Aniline Derivatives and Their Platinum (II) Complexes as New Chemotherapy Agents” (Pharmaceuticals, 2021).

“Also recorded” adds a separate entry of the source.

The subject of data set [1] is MCF-7 cells. The experiment in a line: CCK-8 cell viability assay, MCF-7. The data set is classed as cell-based. Particulars: MCF-7 human breast cancer cells, CCK-8, 24 h, mean ± SEM, n = 3. Here is the method: (§1) Human colorectal adenocarcinoma cells (HT-29, ATCC® HTB-38), adenocarcinomic human alveolar basal epithelial cells (A549, ATCC® CCL-185), and prostate cancer (PC-3, ATCC® CRL-1435) were cultured in the growth medium, containing Roswell Park Memorial Institute Medium (RPMI1640) WelGENE, Daegu, Korea supplemented with 10% (v/v) fetal bovine serum (FBS, Gibco, Grand Island, NY, USA) and 1% antibiotics-antimycotics (Gibco). Human breast adenocarcinoma cells (MCF-7, ATCC® HTB-22™), hepatocellular carcinoma (HepG2, ATCC® HB-8065™), Rattus brain glioma (C6, ATCC ® CRL-2303™), and human renal carcinoma (Caki-2, ATCC® HTB-47™) cells were cultured in Dulbecco’s modified Eagle’s medium (DMEM, WelGENE, Daegu, Korea) supplemented with 10% (v/v) FBS (Gibco) and 1% antibiotics-antimycotics (Gibco). Mouse brain neural (NE-4C, ATCC® CRL-2925™) and human cervix adenocarcinoma cells (HeLa, ATCC® CCL-2™) were cultured in Eagle’s minimum essential medium (EMEM, ATCC® 30-2003™) supplemented with 10% FBS (Gibco) and 1% antibiotics-antimycotics (Gibco). Mouse liver normal cells (AML12, ATCC® CRL-2254™) were cultured in DMEM/F-12 (WelGENE) supplemented with 10% FBS (Gibco), 1 × ITS (10 μg/mL insulin, 5.5 μg/mL transferrin, 6.7 ng/mL selenium, Gibco), […] 1% antibiotics-antimycotics (Gibco). Human breast epithelial cells (MCF 10A, ATCC® CRL-10317™) were cultured in DMEM/F-12 (WelGENE) supplemented with 5% horse serum (Gibco), 20 ng/mL epidermal growth factor (EGF, Peprotech Inc., Rocky Hill, NJ, USA), […] (Sigma-Aldrich, St. Louis, MO, USA), 100 ng/mL colera toxin (Sigma-Aldrich), 10 μg/mL insulin (Sigma-Aldrich) and 1% antibiotics- (Gibco). Human colon normal epithelial cells (FHC, ATCC® CRL-18317™) were cultured in DMEM/F-12 (WelGENE) supplemented with 10% FBS (Gibco), 10 ng/mL cholera toxin (Sigma-Aldrich), 20 ng/mL EGF (Peprotech Inc.), 100 μg/mL hydrocortisone (Sigma-Aldrich), 1 × ITS (10 μg/mL insulin, 5.5 μg/mL transferrin, 6.7 ng/mL selenium, Gibco) and 1% antibiotics-antimycotics (with 100 units penicillin, 100 μg streptomycin and 250 ng amphotericin B per mL, Gibco). Cells were incubated in a humidified 5% CO2 atmosphere at 37 °C.
(§2) To evaluate cytotoxicity, cells were seeded in a 96-well plate (FHC, 0.5 × 10^4 cells/well; Caki-2 and MCF 10A, 1 × 10^4 cells/well; AML12, 1.2 × 10^4 cells/well; HeLa, HEK-293, A549, and PC-3, 1.5 × 10^4 cells/well; HT-29, MCF-7, C6, HepG2, and NE-4C, 2 × 10^4 cells/well). […] In addition, cell counting kit-8 (CCK-8, Dojindo Laboratories, Kumamoto, Japan) solution was added to each well, and the plate was incubated for 2 h. The absorbance was then measured at 450 nm using a microplate reader (SpectraMax i3, Molecular Devices, San Jose, CA, USA). The IC50 and logIC50 values were calculated in GraphPad Prism (GraphPad Prism Software Inc. Version 5.02, San Diego, CA, USA). All experiments were performed, independently, three times. The graph of logIC50 values represents the average value.

The test system of data set [2] is NE-4C cells. The experiment in a line: CCK-8 cell viability assay, NE-4C normal cells. The data set is classed as cell-based. Particulars: NE-4C mouse brain neural stem cells, CCK-8, 24 h, mean ± SEM, n = 3. Here is the method:
as §1, §2

Data set [3] has as its system PC-3 cells. The data set can be described thus: CCK-8 cell viability assay, PC-3. The data set is classed as cell-based. Particulars: PC-3 human prostate cancer cells, CCK-8, 24 h, mean ± SEM, n = 3. Here is the method:
as §1, §2

The nature of data set [4]: Stability in buffered aqueous solution by UV-Vis spectroscopy. The data set is classed as physicochemical. Here is the method:
An indispensable feature of any promising anticancer agent is its thermodynamic stability in aqueous media. All prospective agents should be able to reach their target under the conditions encountered in living organisms. Therefore, the stability of the compounds was measured at 1 mM in phosphate-buffered saline (PBS) solution using UV–Vis spectroscopy. […] The stability of the metal complexes is often dependent on the pH value and the pH 4.5–5.0 is crucial since endosomal uptake of the complexes by lysosomes can occur.

The test system of data set [5] is C6 cells. The experiment in a line: CCK-8 cell viability assay, C6. The data set is classed as cell-based, Rattus. Particulars: C6 brain glioma cells, CCK-8, 24 h, mean ± SEM, n = 3. Here is the method: as §1, §2
The subject of data set [6] is HEK-293 cells. The data set can be described thus: CCK-8 cell viability assay, HEK-293 normal cells. The data set is classed as cell-based. The note with it: HEK-293 human embryonic kidney cells, CCK-8, 24 h, mean ± SEM, n = 3. Here is the method: as §2
Data set [7] concerns MCF-10A cells. The data set can be described thus: CCK-8 cell viability assay, MCF-10A normal cells. The data set is classed as cell-based. Particulars: MCF-10A normal human breast epithelial cells, CCK-8, 24 h, mean ± SEM, n = 3. Here is the method:
as §1, §2

The subject of data set [8] is Caki-2 cells. The experiment in a line: CCK-8 cell viability assay, Caki-2. The data set is classed as cell-based. Particulars: Caki-2 human renal cancer cells, CCK-8, 24 h, mean ± SEM, n = 3. Here is the method:
as §1, §2

The test system of data set [9] is HepG2 cells. The experiment in a line: CCK-8 cell viability assay, HepG2. The data set is classed as cell-based. Particulars: HepG2 human hepatic carcinoma cells, CCK-8, 24 h, mean ± SEM, n = 3. Here is the method:
as §1, §2

For data set [10], the system named is HT-29 cells. The experiment in a line: CCK-8 cell viability assay, HT-29. The data set is classed as cell-based. Particulars: HT-29 human colon cancer cells, CCK-8, 24 h, mean ± SEM, n = 3. Here is the method:
as §1, §2

The nature of data set [11]: Solubility in water / aqueous media. The data set is classed as physicochemical.
In data set [12] the test system is HeLa cells. The experiment in a line: CCK-8 cell viability assay, HeLa. The data set is classed as cell-based. The note with it: HeLa human cervical cancer cells, CCK-8, 24 h, mean ± SEM, n = 3. Here is the method:
as §1, §2

Data set [13] has as its system FHC cells. The data set can be described thus: CCK-8 cell viability assay, FHC normal cells. Particulars: FHC normal human colon epithelial cells, CCK-8, 24 h, mean ± SEM, n = 3. The data set is classed as cell-based. Here is the method: as §1, §2
For data set [14], the system named is AML12 cells. The data set can be described thus: CCK-8 cell viability assay, AML12 normal cells. The data set is classed as cell-based. Particulars: AML12 normal mouse liver hepatocyte cells, CCK-8, 24 h, mean ± SEM, n = 3. Here is the method:
as §1, §2

In data set [15] the test system is A549 cells. The experiment in a line: CCK-8 cell viability assay, A549. The data set is classed as cell-based. The note with it: A549 human lung cancer cells, CCK-8, 24 h, mean ± SEM, n = 3. Here is the method:
as §1, §2

Turning to `O=C(Nc1ccc(-c2nc3ccccc3s2)cc1)C1C[NH2+][Pt-2]([Cl])([Cl])[NH2+]1` (stereo not shown) [Compound L1Pt], the half-maximal inhibitory concentration (IC50) in data set [1] is 59 ± 11 µM; in data set [2], 25.7 ± 1.7 µM; in [3], 55.7 ± 7.5 µM; in [5], 93.3 ± 22.7 µM; in data set [6], 54.9 ± 2.8 µM; in data set [7], 46.9 ± 5.1 µM. Further, the IC50 in data set [8] was 106 ± 8.5 µM; in data set [9], 7.5 ± 0.1 µM; in data set [10], 42.6 ± 5.6 µM; in data set [12] it was 64.7 ± 0.3 µM; in data set [13], 64.3 ± 2.4 µM; in [14] it was 139 ± 0.8 µM. In data set [15], this compound yielded an IC50 of 167 ± 11.2 µM. Further, in data set [4] (1 mM in PBS (L1Pt: 2% DMSO in PBS), physiological pH 7.4, t = 0, 7, 24 h, 200-450 nm), the “Stability, time-dependent UV-Vis spectrum” value was “did not display any significant changes throughout 24 h; also recorded: remains stable over 24 h”. Also, the “Stability, time-dependent UV-Vis spectrum at other pH-values” in data set [4] (1 mM in PBS, acidic (pH 2), weakly acidic (pH 5), alkaline (pH 12), t = 0, 7, 24 h) is recorded as “no obvious changes in the absorptions peak”. For the same compound, in data set [11], the “Solubility in water / aqueous media” value is “poor solubility in aqueous media”.
